According to patent US11555012B2 (Nimbus Artemis, Inc., priority 2018, dated 2023):

Target: ACL (Homo sapiens (Human), UniProt P53396)
Test: ADP-Glo Assay
Details: not given

ACL, sequence (P53396 other isoform, or with tags, fused parts or gaps isoform P53396-2): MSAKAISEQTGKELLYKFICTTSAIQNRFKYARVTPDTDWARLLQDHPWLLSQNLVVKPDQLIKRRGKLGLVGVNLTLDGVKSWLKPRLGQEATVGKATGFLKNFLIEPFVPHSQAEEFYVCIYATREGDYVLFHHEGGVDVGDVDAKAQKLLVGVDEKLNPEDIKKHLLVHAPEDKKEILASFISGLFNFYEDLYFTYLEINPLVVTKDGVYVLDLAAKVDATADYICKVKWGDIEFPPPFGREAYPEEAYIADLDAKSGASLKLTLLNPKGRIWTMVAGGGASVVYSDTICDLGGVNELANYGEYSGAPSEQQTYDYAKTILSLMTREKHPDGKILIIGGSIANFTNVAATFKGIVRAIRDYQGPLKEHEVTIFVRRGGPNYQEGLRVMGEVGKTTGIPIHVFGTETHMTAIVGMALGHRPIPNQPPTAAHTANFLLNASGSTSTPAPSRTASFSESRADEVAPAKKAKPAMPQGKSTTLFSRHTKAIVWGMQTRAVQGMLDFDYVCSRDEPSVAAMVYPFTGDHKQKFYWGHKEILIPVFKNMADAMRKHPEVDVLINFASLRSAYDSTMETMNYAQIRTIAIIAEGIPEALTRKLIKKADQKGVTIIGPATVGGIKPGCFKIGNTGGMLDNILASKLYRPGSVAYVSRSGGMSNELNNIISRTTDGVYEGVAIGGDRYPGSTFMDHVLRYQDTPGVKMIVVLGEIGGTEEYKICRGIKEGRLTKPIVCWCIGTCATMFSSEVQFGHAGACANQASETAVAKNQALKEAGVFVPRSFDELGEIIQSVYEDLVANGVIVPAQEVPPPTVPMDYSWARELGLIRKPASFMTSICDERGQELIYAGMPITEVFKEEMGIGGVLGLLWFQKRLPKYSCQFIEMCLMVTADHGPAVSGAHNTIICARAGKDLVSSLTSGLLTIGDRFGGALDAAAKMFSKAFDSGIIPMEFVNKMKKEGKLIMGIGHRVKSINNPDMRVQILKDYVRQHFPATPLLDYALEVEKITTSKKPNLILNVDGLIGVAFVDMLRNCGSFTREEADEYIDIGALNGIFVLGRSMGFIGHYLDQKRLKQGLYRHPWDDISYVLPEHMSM

Structure (SMILES) | IC50
O=C(O)c1ccc(-c2ccccc2)cc1NS(=O)(=O)c1cc(Br)cs1 [I-319, 3-((4-bromothiophene)-2-sulfonamido)-[1,1′-biphenyl]-4-carboxylic acid] | 0.5 to 20 µM
NC(=O)COc1c(Cl)cc(Cl)cc1C(=O)Nc1cc(-c2ccccc2)ccc1C(=O)O [I-320, 3-(2-(2-amino-2-oxoethoxy)-3,5-dichlorobenzamido)-[1,1′-biphenyl]-4-carboxylic Acid] | 0.5 to 20 µM
Cc1ccc(C(=O)O)c(NS(=O)(=O)c2cc(Cl)cc(Cl)c2)c1 [I-321, 2-((3,5-dichlorophenyl)sulfonamido)-4-methylbenzoic Acid] | 0.5 to 20 µM
O=C(O)c1ccc(C(F)(F)F)cc1NS(=O)(=O)c1cc(Cl)cc(Cl)c1 [I-324, 2-((3,5-dichlorophenyl)sulfonamido)-4-(trifluoromethyl)benzoic Acid] | 0.5 to 20 µM
CN(c1cc(-c2ccccc2)c(F)cc1C(=O)O)S(=O)(=O)c1cc(Cl)cc(Cl)c1 [I-325, 5-((3,5-dichloro-N-methylphenyl)sulfonamido)-2-fluoro-[1,1′-biphenyl]-4-carboxylic Acid] | 0.5 to 20 µM
COCc1cc(Cl)cc(S(=O)(=O)Nc2cc(-c3ccccc3)ccc2C(=O)O)c1 [I-337] | 0.5 to 20 µM
O=C(O)c1c(NS(=O)(=O)c2cc(Cl)cc(Cl)c2)sc2c1CCC2 [I-341, 2-((3,5-dichlorophenyl)sulfonamido)-5,6-dihydro-4H-cyclopenta[b]thiophene-3-carboxylic acid] | 0.5 to 20 µM
O=C(O)c1ccc(-c2ccccc2)cc1NS(=O)(=O)c1cc(Cl)cc(Cl)c1F [I-342, 3-((3,5-dichloro-2-fluorophenyl)sulfonamido)-[1,1′-biphenyl]-4-carboxylic Acid] | 0.5 to 20 µM
O=C(O)c1cc(Cl)ccc1NS(=O)(=O)c1cc(Cl)cc(Cl)c1 [I-343, 5-chloro-2-((3,5-dichlorophenyl)sulfonamido)benzoic Acid] | 0.5 to 20 µM
Cc1nn(C)c(Cl)c1S(=O)(=O)Nc1cc(-c2ccccc2)ccc1C(=O)O [I-345, 3-((5-chloro-1,3-dimethyl-1H-pyrazole)-4-sulfonamido)-[1,1′-biphenyl]-4-carboxylic Acid] | 0.5 to 20 µM
COC(=O)c1ccc(-c2ccccc2)cc1NS(=O)(=O)c1cc(Cl)cnc1O [I-346, methyl 3-((5-chloro-2-hydroxypyridine)-3-sulfonamido)-[1,1′-biphenyl]-4-carboxylate] | 0.5 to 20 µM
Cc1noc(C)c1S(=O)(=O)Nc1cc(-c2ccccc2)ccc1C(=O)O [I-351, 3-((3,5-dimethylisoxazole)-4-sulfonamido)-[1,1′-biphenyl]-4-carboxylic Acid] | 0.5 to 20 µM
O=C(O)c1ccsc1NS(=O)(=O)c1cc(Cl)cc(Cl)c1 [I-352, 2-((3,5-dichlorophenyl)sulfonamido)thiophene-3-carboxylic Acid] | 0.5 to 20 µM
O=C(O)c1ccc(-c2ccccc2)cc1NS(=O)(=O)c1ccc(C(F)(F)F)cc1 [I-353, 3-((4-(trifluoromethyl)phenyl)sulfonamido)-[1,1′-biphenyl]-4-carboxylic acid] | 0.5 to 20 µM
COc1ccc(-c2ccccc2)cc1NS(=O)(=O)c1cc(Cl)c[nH]c1=O [I-354, 5-chloro-N-[4-methoxy-[1,1-biphenyl]-3-yl]-2-oxo-1,2-dihydropyridine-3-sulfonamide] | 0.5 to 20 µM
O=C(O)c1ccc(-c2ccccc2)cc1NS(=O)(=O)CCC1CCCC1 [I-356] | 0.5 to 20 µM
Cc1cc(S(=O)(=O)Nc2cc(-c3ccccc3)ccc2C(=O)O)ccc1-n1cnnn1 [I-357] | 0.5 to 20 µM
O=C(O)c1ccc(-c2ccccc2)cc1NS(=O)(=O)c1ccc(-n2cccn2)c(F)c1 [I-358] | 0.5 to 20 µM
O=C(O)c1ccc(-c2ccccc2)cc1NS(=O)(=O)c1cc(Br)cc2c1OCCNC2=O [I-359] | 0.5 to 20 µM
O=C(O)c1ccc(-c2ccccc2)cc1NS(=O)(=O)CCOCCN1C(=O)c2ccccc2C1=O [I-360] | 0.5 to 20 µM
O=C(O)c1sccc1NS(=O)(=O)c1cc(Cl)cc(Cl)c1 [I-362, 3-((3,5-dichlorophenyl)sulfonamido)thiophene-2-carboxylic Acid] | 0.5 to 20 µM
O=C(O)c1c(NS(=O)(=O)c2cc(Cl)cc(Cl)c2)sc2c1CCCC2 [I-363, 2-((3,5-dichlorophenyl)sulfonamido)-4,5,6,7-tetrahydrobenzo[b]thiophene-3-carboxylic Acid] | 0.5 to 20 µM

Structure (SMILES) | IC50
Cc1c(-c2ccccc2)ccc(C(=O)O)c1NS(=O)(=O)c1cc(Cl)cc(C(F)(F)F)c1 [I-365, 3-((3-chloro-5-(trifluoromethyl)phenyl)sulfonamido)-2-methyl-[1,1′-biphenyl]-4-carboxylic Acid] | 0.5 to 20 µM
O=C(c1c[nH]c(=O)c(S(=O)(=O)Nc2cc(-c3ccccc3)ccc2F)c1)N1CCC1 [I-369, 5-(azetidine-1-carbonyl)-N-(4-fluoro-[1,1′-biphenyl]-3-yl)-2-oxo-1,2-dihydropyridine-3-sulfonamide] | 0.5 to 20 µM
CN(c1cc(-c2ccccc2)ccc1F)S(=O)(=O)c1cc(Cl)cc(Br)c1O [I-370, 3-bromo-5-chloro-N-(4-fluoro-[1,1′-biphenyl]-3-yl)-2-hydroxy-N-methylbenzenesulfonamide] | 0.5 to 20 µM
O=S(=O)(Nc1ccc(F)cc1F)c1cc(Cl)cc(-c2nn[nH]n2)c1 [I-373, 3-chloro-N-(2,4-difluorophenyl)-5-(2H-1,2,3,4-tetrazol-5-yl)benzene-1-sulfonamide] | > 20 µM
COc1ccc(-c2ccccc2)cc1NS(=O)(=O)c1cc(C(=O)N2CCC2)cc(Cl)c1OC [I-374, 5-(azetidine-1-carbonyl)-3-chloro-2-methoxy-N-[4-methoxy-[1,1-biphenyl]-3-yl]benzene-1-sulfonamide] | > 20 µM
O=C(COc1c(Cl)cc(C(=O)N2CCC2)cc1S(=O)(=O)Nc1cc(-c2ccccc2)c(F)cc1F)OCc1ccccc1 [I-375, benzyl 2-(4-(azetidine-1-carbonyl)-2-chloro-6-(N-(4,6-difluoro-[1,1′-biphenyl]-3-yl)sulfamoyl)phenoxy)acetate] | > 20 µM
O=S(=O)(Nc1cc(-c2ccccc2)c(F)cc1F)c1cccc2ccccc12 [I-376, N-(4,6-difluoro-[1,1 biphenyl]-3-yl)naphthalene-1-sulfonamide] | > 20 µM
O=S(=O)(Nc1cc(-c2ccccc2)ccc1F)c1cccc2cc[nH]c12 [I-377, N-[4-fluoro-[1,1-biphenyl]-3-yl]-1H-indole-7-sulfonamide] | > 20 µM
COc1c(Cl)cc(C(=O)N2CCC2)cc1S(=O)(=O)Nc1cc(-c2ccccc2)c(F)cc1F [I-378, 5-(azetidine-1-carbonyl)-3-chloro-N-[4,6-difluoro-[1,1-biphenyl]-3-yl]-2-methoxybenzene-1-sulfonamide] | > 20 µM
O=C(O)COc1ccccc1S(=O)(=O)Nc1cc(-c2ccccc2)ccc1F [I-379, 2-(2-(N-(4-fluoro-[1,1′-biphenyl]-3-yl)sulfamoyl)phenoxy)acetic Acid] | > 20 µM
COc1ccc(Br)cc1S(=O)(=O)Nc1cc(-c2ccccc2)c(F)cc1F [I-380, 5-bromo-N-[4,6-difluoro-[1,1-bipheny1]-3-yl]-2-methoxybenzene-1-sulfonamide] | > 20 µM
N#Cc1cc(S(=O)(=O)Nc2cc(-c3ccccc3)c(F)cc2F)ccc1F [I-381, 3-cyano-N-(4,6-difluoro-[1,1′-biphenyl]-3-yl)-4-fluorobenzenesulfonamide] | > 20 µM
CC(C)(C)OC(=O)n1ccc2cccc(S(=O)(=O)Nc3cc(-c4ccccc4)ccc3F)c21 [I-382, tert-butyl 7-(N-(4-fluoro-[1,1′-biphenyl]-3-yl)sulfamoyl)-1H-indole-1-carboxylate] | > 20 µM
O=S(=O)(Nc1cc(-c2ccccc2)c(F)cc1F)c1cccc2c1OCCO2 [I-383, N-[4,6-difluoro-[1,1-biphenyl]-3-yl]-2,3-dihydro-1,4-benzodioxine-5-sulfonamide] | > 20 µM
COc1ccc(C(=O)N2CCC2)cc1S(=O)(=O)Nc1cc(-c2ccccc2)c(F)cc1F [I-384, 5-(azetidine-1-carbonyl)-N-[4,6-difluoro-[1,1-biphenyl]-3-yl]-2-methoxybenzene-1-sulfonamide] | > 20 µM
CS(=O)(=O)c1ccccc1S(=O)(=O)Nc1cc(-c2ccccc2)c(F)cc1F [I-385, N-[4,6-difluoro-[1,1-biphenyl]-3-yl]-2-methanesulfonylbenzene-1-sulfonamide] | > 20 µM
O=C(c1cc(Cl)cc(S(=O)(=O)Nc2cc(-c3ccccc3)c(F)cc2F)c1)N1CCC1 [I-386, 3-(azetidine-1-carbonyl)-5-chloro-N-(4,6-difluoro-[1,1′-biphenyl]-3-yl)benzenesulfonamide] | > 20 µM
CC(C)(C)OC(=O)COc1c(Cl)cc(C(=O)N2CCC2)cc1S(=O)(=O)Nc1cc(-c2ccccc2)c(F)cc1F [I-387, tert-butyl 2-[4-(azetidine-1-carbonyl)-2-chloro-6-([4,6-difluoro-[1,1-biphenyl]-3-yl]sulfamoyl)phenoxy]acetate] | > 20 µM
CO[C@@H]1CCN(C(=O)c2cc(Cl)cc(S(=O)(=O)Nc3cc(-c4ccccc4)c(F)cc3F)c2)C1 [I-388, (R)-3-chloro-N-(4,6-difluoro-[1,1′-biphenyl]-3-yl)-5-(3-methoxypyrrolidine-1-carbonyl)benzenesulfonamide] | > 20 µM
CO[C@H]1CCN(C(=O)c2cc(Cl)cc(S(=O)(=O)Nc3cc(-c4ccccc4)c(F)cc3F)c2)C1 [I-389, (S)-3-chloro-N-(4,6-difluoro-[1,1′-biphenyl]-3-yl)-5-(3-methoxypyrrolidine-1-carbonyl)benzenesulfonamide] | > 20 µM
O=S(=O)(Nc1cc(-c2ccccc2)c(F)cc1F)c1cccc2nsnc12 [I-390, N-(4,6-difluoro-[1,1 biphenyl]-3-yl)benzo[c][1,2,5]thiadiazole-4-sulfonamide] | > 20 µM
COc1ccc(-c2ccccc2)cc1N(Cc1cc(Cl)cc(Cl)c1O)S(C)(=O)=O [I-391, N-(3,5-dichloro-2-hydroxybenzyl)-N-(4-methoxy-[1,1′-biphenyl]-3-yl)methanesulfonamide] | > 20 µM

Same assay, conditions: read-out: ACL-ADP-Glo (IC50); 3 nM ACL, 15 μM ATP, 3 μM CoA, 300 μM Citrate

Structure (SMILES) | IC50
O=C(O)c1ccc(-c2ccccc2)cc1NCc1cc(Cl)cc(Cl)c1 [I-371, 3-((3,5-dichlorobenzyl)amino)-[1,1′-biphenyl]-4-carboxylic Acid] | 0.5 to 20 µM
